Results on seven compounds are retold here after patent US20170147743A1, “RAPID IDENTIFICATION OF PHARMACOLOGICAL TARGETS AND ANTI-TARGETS FOR DRUG DISCOVERY AND REPURPOSING” (UNIVERSITY OF MIAMI, priority 2015, published 2017).

Structures are written as SMILES.

For assay [1], the system named is representative anti-target kinases. Description: Target/anti-target activity matrix from kinase profiling. The assay is classed as biochemical. Conditions: FIG. 3B matrix. Here is the method:
(§1) Activity Profiling of Screened Kinase Inhibitors. In vitro profiling of kinase inhibitors against a panel of 190 kinases was performed. Out of bound values were cropped, whereby values below 0% were adjusted to 0%, and values above 100% were adjusted to 100%.
(§2) FIG. 3B illustrates a resultant target-anti-target activity matrix developed by the identification system (e.g., at process 114). The target/anti-target matrix identifies protein target groups separately from protein anti-target groups, where each group type may be ranked according to various factors, such as biologic activity and inhibition bias. Engagement of the protein targets in the matrix promotes a biological activity; and engagement of the protein anti-targets in the matrix impedes the biological activity. In the particular example of FIG. 3B, representative protein kinases for each kinase group and the compounds that inhibit at least one member in the group by ≧10% are shown. […] Compounds are arranged top to bottom in order of decreasing maximum % NTL (right-hand color scale). […] RO0480500-002 accordingly produced % NTL up to 400%, well above the % NTL of any of the other compound. […]

For assay [2], the system named is representative target kinases. The description is as above. The assay is classed as biochemical. To be noted: FIG. 3B matrix; seven targets. The procedure:
as §1, §2

Assay [3] relates to rat embryonic (E18) hippocampal neurons. Description: Neurite outgrowth screening assay with hippocampal neurons. The assay is classed as cell-based. Conditions: neurite total length as percentage of control; for NTL_32 (neurite outgrowth, % NTL): concentration 32 (unit not given); for NTL_160 (neurite outgrowth, % NTL): concentration 160 (unit not given); for NTL_800 (neurite outgrowth, % NTL): concentration 800 (unit not given); for NTL_4000 (neurite outgrowth, % NTL): concentration 4000 (unit not given); for NTL_20000 (neurite outgrowth, % NTL): concentration 20000 (unit not given). An excerpt: Neurite Outgrowth Screening Assay with Hippocampal Neurons. Kinase inhibitor libraries were screened in a neurite outgrowth assay. Compounds were screened on rat embryonic (E18) hippocampal neurons cultured for 2 DIV on poly-D-lysine. Plates were fixed, immunostained, and imaged. Screened compounds were classified based on their effects on neurite total length, expressed as percentage of control (% NTL), which served as the biological activity referenced in FIG. 1, for this example. Hits were defined as compounds whose biologic activity (% NTL) reached at least 130% in two independent experiments (hits: % NTL 130; non-hits: % NTL<130). That is, in this example an NTL of 130 was used as the threshold measure (see, e.g., FIGS. 8 and 9). […] A stratification (assurance) step was performed by eliminating from subsequent analysis compounds that had biologic activity within 1 standard deviation of the hit threshold (130±15) (see, e.g., FIG. 6A). Compounds that reduced viable cell count (biologic activity) by more than 40% at concentrations below 800 nM were considered to be toxic and also excluded from subsequent analysis.

On to `COc1cc(N2CCC(N3CCN(C)CC3)CC2)ccc1Nc1ncnc(Nc2ccccc2S(=O)(=O)C(C)C)n1` [ASP3026], for which the “inhibition of representative anti-target kinases” value in assay [1] is “does not inhibit any”. Also, the “inhibition of representative target kinases” value in assay [2] was “inhibits the two target kinases”.

Turning to `c1ccc(-c2cnc(Nc3ccc(OCCN4CCCC4)cc3)s2)cc1` [Flt-3 Inhibitor III], in assay [3], the “NTL_32 (neurite outgrowth, % NTL)” value came to 227.0293%; the “NTL_160 (neurite outgrowth, % NTL)” value is recorded as 250.8023%; the “NTL_800 (neurite outgrowth, % NTL)” value amounted to 291.5283%; the “NTL_4000 (neurite outgrowth, % NTL)” value was 105.129%. The “NTL_20000 (neurite outgrowth, % NTL)” value in assay [3] came to 48.44%.

For `NS(=O)(=O)c1cccc(N/C=C2\C(=O)Nc3ccc(S(=O)(=O)Cc4c(Cl)cccc4Cl)cc32)c1` [GSK398099A], in assay [3], the “NTL_32 (neurite outgrowth, % NTL)” value is 100.7527%; the “NTL_160 (neurite outgrowth, % NTL)” value was determined as 86.99%; the “NTL_800 (neurite outgrowth, % NTL)” value turned out to be 91.2121%; the “NTL_4000 (neurite outgrowth, % NTL)” value was 234.4329%. In assay [3], the “NTL_20000 (neurite outgrowth, % NTL)” value worked out at 357.738%.

As for `NC[C@H](CC1CCCCC1)NC(=O)c1ccc(-c2ccnc3[nH]ccc23)s1` [GSK1581428A], in assay [3], the “NTL_32 (neurite outgrowth, % NTL)” value amounted to 229.399%; the “NTL_160 (neurite outgrowth, % NTL)” value is reported as 335.5001%; the “NTL_800 (neurite outgrowth, % NTL)” value was 262.488%; the “NTL_4000 (neurite outgrowth, % NTL)” value came to 92.84%. For the same compound, the “NTL_20000 (neurite outgrowth, % NTL)” value in assay [3] was found to be 36.79%.

Turning to `N#Cc1ccc(-c2cc(-c3c[nH]nc3-c3ccccn3)ccn2)cc1` [GW693028X], in assay [3], the “NTL_32 (neurite outgrowth, % NTL)” value stood at 114.3254%; the “NTL_160 (neurite outgrowth, % NTL)” value amounted to 101.7908%; the “NTL_800 (neurite outgrowth, % NTL)” value turned out to be 99.07%; the “NTL_4000 (neurite outgrowth, % NTL)” value is 110.3241%. Also, in assay [3], the “NTL_20000 (neurite outgrowth, % NTL)” value worked out at 296.1224%.

As to `N#CC(=C(N)Sc1ccc(N)cc1)c1ccccc1C(F)(F)F` [MEK1/2 Inhibitor], in assay [3], the “NTL_32 (neurite outgrowth, % NTL)” value turned out to be 109.3381%; the “NTL_160 (neurite outgrowth, % NTL)” value is 101.2957%; the “NTL_800 (neurite outgrowth, % NTL)” value is recorded as 104.668%; the “NTL_4000 (neurite outgrowth, % NTL)” value worked out at 120.1756%. Further, the “NTL_20000 (neurite outgrowth, % NTL)” value in assay [3] amounted to 286.068%.

In the case of `Cl.O=S(=O)(c1cccc2c(I)cccc12)N1CCCNCC1` [ML-7, Hydrochloride], in assay [3], the “NTL_32 (neurite outgrowth, % NTL)” value was found to be 193.8632%; the “NTL_160 (neurite outgrowth, % NTL)” value is on record as 288.4679%; the “NTL_800 (neurite outgrowth, % NTL)” value is 285.3279%; the “NTL_4000 (neurite outgrowth, % NTL)” value is listed as 269.3169%. In addition, in assay [3], the “NTL_20000 (neurite outgrowth, % NTL)” value was 70.23%.
